Data as given in patent publication US20230125380A1, “Topical Compositions Comprising IRAK4 Inhibitors for Use in Treating Dermatological Conditions Characterised by Inflammation” (Dermira, Inc., priority 2019, published 2023).

Legend:
[1] = test system: human surgical skin (skin resident immune cells), LPS; assay: skin Resident Immune Cell Assay (sRICA), topical screening, TNFα protein expression; type: cell-based; conditions: mean TNFα level in LPS treated samples set to 100%
Procedure: A skin Resident Immune Cell Assay (sRICA) was used to test compounds for reduction of inflammation. In this model, human surgical skin waste was cultured in a transwell system, with the dermis in contact with cell culture media and the stratum corneum exposed to air. To perform the assay, each human skin sample was defatted and dermatomed to 750 μm. Next, 8 mm punch biopsies were obtained and placed in a membrane transwell. The transwells were inserted into culture wells with complete media, and a cocktail of cytokines and antibodies were added to promote skin resident immune cell polarization. The transwells were treated with LPS as a positive control, a vehicle as a negative control, and various dual IRAK/TrkA inhibitors. TNFα protein expression was measured and the mean TNFa protein level in the LPS treated samples was set to 100%.
Overall results for all tested compounds are summarized below in Table 1. Results are expressed as a percentage of TNFα expression relative to the LPS treated sample.

[2] = test system: rosacea lesional (LS) skin; assay: RNAseq of treated lesional papulopustular rosacea biopsies; type: cell-based, human; conditions: LS rosacea biopsy, 24 hours culture, 1 μM and 0.5 μM
Procedure: Five patients with mild-moderate, untreated, papulopustular rosacea (PPR) were enrolled and completed the study. Each patient donated 3 punch biopsies: 1 non-lesional (NL) and 2 lesional (LS) papules. Each biopsy was bisected, resulting in a total of 6 biopsy pieces. NL tissue was left untreated. […] Tissue was cultured in media at 37 C, 5% CO2 for 24 hours. After culture, the tissue was submerged in RNAlater for subsequent RNA isolation and RNA seq, and conditioned cell media was collected into 2×500 ul aliquots for proteomic analysis.
MMP-1 results are shown in FIG. 4A (RNAseq) and FIG. 4B (OLink); CXCL5 results are shown in FIG. 5A (RNAseq) and FIG. 5B (OLink); and IL-1(3 results are shown in FIG. 6A (RNAseq) and FIG. 6B (OLink).

[3] = test system: rosacea lesional (LS) skin; assay: OLink proteomics of treated lesional papulopustular rosacea biopsies; type: cell-based, human; conditions: LS rosacea biopsy
Procedure: (§1) Five patients with mild-moderate, untreated, papulopustular rosacea (PPR) were enrolled and completed the study. Each patient donated 3 punch biopsies: 1 non-lesional (NL) and 2 lesional (LS) papules. Each biopsy was bisected, resulting in a total of 6 biopsy pieces. NL tissue was left untreated. LS tissue was either left untreated (vehicle), treated with a dual IRAK/TrkA inhibitor according to the present disclosure (1 uM or […]) or clobetasol (1 uM). Tissue was cultured in media at 37 C, 5% CO2 for 24 hours. After culture, the tissue was submerged in RNAlater for subsequent RNA isolation and RNA seq, and conditioned cell media was collected into 2×500 ul aliquots for proteomic analysis.
Proteomic analysis included use of the OLink platform. OLink proteomics, includes immunoassay, extension, preamplification, and detection by microfluidic qPCR, and has a high multiplex ability, but not absolute quantification of protein (only relative expression).
For the OLink proteomics platform, 40 μl of conditioned cell media was sent to OLINK proteomics for evaluation on their human Inflammation Panel (92 proteins):
Protein expression was measured from NL samples, untreated LS samples, and LS samples treated with the compound of Formula (Ia) at 1 μM, the compound of Formula (Ia) at 0.5 μM, or clobetasol at 1 μM. […] CXCL1, β-NGF, LIF, TGF-alpha, IL-8, and IL-6 are all proteins that have reduced expression in NL compared to LS samples.

[4] = test system: rosacea lesional (LS) skin; assay: MesoScale Discovery (MSD) immunoassay of treated lesional papulopustular rosacea biopsies; type: cell-based, human
Procedure: as §1
Next, the protein expression results obtained using the OLink platform were verified using MesoScale Discovery (MSD). MSD involves coating of carbon electrodes with multiple capture antibodies each coated onto discrete spots in the same plate, and is a multiplex platform that allows for absolute quantification of protein expression, as measured in pg/mL. For MSD quantification, 150 μl of conditioned cell media was analyzed using MSD platform using the human Cytokine 30-plex kit:
The protein expression analysis was repeated using the MSD platform.

[5] = 24 hours following treatment, 1 μM and 0.5 μM

C=C(CC1=CC(C)C=C1C1CCC(CCC)C1=C)C1=CCC(c2cccc(CCC(C)(C)C)c2)=C1 (centres unmarked)
TNFα Protein Expression (% relative to positive control) [1]: 64.03%

Cn1cc(NC(=O)c2coc(-c3ccnc(NCC(F)(F)F)c3)n2)c(N2CC(CNC3CC3)C(C)(C)C2=O)n1 (centres unmarked)
TNFα Protein Expression (% relative to positive control) [1]: 72.95%

Cn1cc(NC(=O)c2coc(-c3ccnc(NCC(F)(F)F)c3)n2)c(N2CCNC2=O)n1
TNFα Protein Expression (% relative to positive control) [1]: 59.13%

Cn1cc(NC(=O)c2coc(-c3ccnc(NCC(F)(F)F)c3)n2)c(N2CCN(CCO)C2=O)n1 [Formula (Ia)]
CXCL5 RNA expression (RNAseq) [2]: significantly downregulated | IL-1β RNA expression (RNAseq) [2]: significantly downregulated | MMP-1 RNA expression (RNAseq) [2]: significantly downregulated | CXCL6 protein expression (OLink) ([3]; 24 hours following treatment): decreased expression | IL-24 protein expression (OLink) ([3]; 24 hours following treatment): decreased expression | MCP-1 protein expression (OLink) ([3]; 24 hours following treatment): decreased expression | NRTN protein expression (OLink) ([3]; 24 hours following treatment): decreased expression | CXCL1 protein expression (OLink) [3, 5]: statistically significant decrease in expression | IL-6 protein expression (OLink) [3, 5]: statistically significant decrease in expression | IL-8 protein expression (OLink) [3, 5]: statistically significant decrease in expression | LIF protein expression (OLink) [3, 5]: statistically significant decrease in expression | TGF-alpha protein expression (OLink) [3, 5]: statistically significant decrease in expression | β NGF protein expression (OLink) [3, 5]: statistically significant decrease in expression | CXCL5 protein expression (OLink) ([3]; 24 hours, 1 μM and 0.5 μM): downregulated | MMP-1 protein expression (OLink) ([3]; 24 hours, 1 μM and 0.5 μM): downregulated | protein expression profile (MSD) ([4]; compared with NL and LS profiles): more similar to the NL profile versus the LS profile | IL-10 protein expression (MSD) ([4]; p=0.002): decreased expression | IL-8 protein expression (MSD) ([4]; p=0.056): decreased expression | MCP-1 protein expression (MSD) ([4]; p=0.09): decreased expression | IL-4 protein expression (MSD) ([4]; p=0.12): decreased expression | IL-6 protein expression (MSD) ([4]; p=0.13): decreased expression | IL-5 protein expression (MSD) ([4]; p=0.2): decreased expression

CNCC1CN(c2nn(C)cc2NC(=O)c2coc(-c3ccnc(NCC(F)(F)F)c3)n2)C(=O)C1(C)C (centres unmarked) [drawing 30]
TNFα Protein Expression (% relative to positive control) [1]: 93.64%

C[C@H]1CCN(c2nn(C)cc2NC(=O)c2coc(-c3ccnc(NCC(F)(F)F)c3)n2)C1=O
TNFα Protein Expression (% relative to positive control) [1]: 92.45%

CC(C)CN1CCN(c2nn(C)cc2NC(=O)c2coc(-c3ccnc(NCC(F)(F)F)c3)n2)C1=O
TNFα Protein Expression (% relative to positive control) [1]: 89.24%

CN(C)CC1CN(c2nn(C)cc2NC(=O)c2coc(-c3ccnc(NCC(F)(F)F)c3)n2)C(=O)C1(C)C (centres unmarked)
TNFα Protein Expression (% relative to positive control) [1]: 86.94%

CC1C=C(CC(=O)c2coc(-c3ccnc(NCC(F)(F)F)c3)c2)C(C2CC(C)[C@H](C)C2=O)=C1 (some centres unmarked)
TNFα Protein Expression (% relative to positive control) [1]: 67.49%

CC1(C)CCN(c2nn(C3COC3)cc2NC(=O)c2coc(-c3ccnc(NCC(F)(F)F)c3)n2)C1=O
TNFα Protein Expression (% relative to positive control) [1]: 97.84%

Cn1cc(NC(=O)c2coc(-c3ccnc(NCC4CC4)c3)n2)c(N2CCN(CCO)C2=O)n1
TNFα Protein Expression (% relative to positive control) [1]: 74.41%

CNCC1CN(c2nn(C)cc2NC(=O)c2coc(-c3ccnc(NCC(F)(F)F)c3)n2)C(=O)C1(C)C (centres unmarked) [drawing 29]
TNFα Protein Expression (% relative to positive control) [1]: 92.45%

Cn1cc(NC(=O)c2coc(-c3ccnc(NCC(F)F)c3)n2)c(N2CCN(CCO)C2=O)n1
TNFα Protein Expression (% relative to positive control) [1]: 72.75%

CC(C)N1CCN(c2nn(C)cc2NC(=O)c2coc(-c3ccnc(NCC(F)(F)F)c3)n2)C1=O
TNFα Protein Expression (% relative to positive control) [1]: 90.44%
